Measurements reported in PubChem BioAssay (NCI).
Values joined by “and” are separate entries in the source; they are usually repeats but may differ in a detail not shown here. Equal entries are not always repeated.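 Each compound was tested at five concentrations against cells in 96-well plates for 48 hours. Abbreviation: GI50, concentration required for 50% inhibition of growth. The concentration for full growth arrest is given as TGI.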

Columns and labels:
Assay in all cases: NCI tumour cell line growth inhibition, 48 h
[1] = test system: SR leukemia
[2] = test system: SNB-19 CNS
[3] = test system: HCT-15 colon
[4] = test system: T-47D breast
[5] = test system: A549 NSCLC
[6] = test system: HOP-62 NSCLC
[7] = test system: IGROV1 ovarian
[8] = test system: COLO 205 colon
[9] = test system: UACC-257 melanoma
[10] = test system: MOLT-4 leukemia

Row | Structure (SMILES) | GI50 [1] [µM] | TGI [1] [µM] | GI50 [2] | TGI [2] | GI50 [3] [µM] | TGI [3] [µM] | GI50 [4] [µM] | TGI [4] [µM] | GI50 [5] [µM] | TGI [5] | GI50 [6] [µM] | TGI [6] | GI50 [7] [µM] | TGI [7] | GI50 [8] [µM] | TGI [8] | GI50 [9] [µM] | TGI [9] | GI50 [10] [µM] | TGI [10]
1 | CCOC(=O)[C@@H](N)CCC(=O)N[C@@H](CSCc1ccccc1)C(=O)N[C@@H](C(=O)OCC)c1ccccc1 | 9.97 | 33.2 | 18.8 µM | 38 µM | 33.7 | > 71.2 | 14.8 | 33.8 | > 73.2 | > 100 µM | 16.6 | 32.8 µM | 19.3 | 36.4 µM | 17.4 | 34.2 µM | 15.4 | 29.7 µM | 24.8 | > 71.4 µM
2 | CN(C)C(=O)c1cc2cnc(Nc3ccc(-c4csc5c(=S)cc(N6CCOCC6)oc45)cc3)nc2n1C1CCCC1 | 0.145 | > 50 | 0.498 µM | > 34.5 µM | 0.344 | > 50 | 0.198 | > 50 | 0.823 | 5.15 µM | 0.694 | > 50 µM | 0.509 | > 50 µM | 0.214 | – | 1.24 | > 14.7 µM | 0.244 | > 50 µM
3 | COc1cc(/C=C/c2cc(/C=C/c3ccc(O)c(OC)c3)n(C(=O)Nc3ccc(F)c(Cl)c3)n2)ccc1O | 0.0415 | – | 0.514 µM | 2.1 µM | 0.25 | 3.34 | 0.634 | 2.32 | 0.387 | 3.47 µM | 0.409 | 1.59 µM | 0.47 | 3.59 µM | 1.76 | 3.25 µM | 1.18 | 5.32 µM | 0.282 | 1.4 µM
4 | NCC1Nc2ccccc2[C@@H](O)C1O (stereo partly drawn) | – | > 100 | – | > 100 µM | – | > 100 | – | > 100 | – | > 100 µM | – | > 100 µM | – | > 100 µM | – | > 100 µM | – | > 100 µM | – | > 100 µM
5 | Cc1cc(C(=O)Nc2ncc(Cc3cccc(C(F)(F)F)c3)s2)c2ccccc2n1 | 2.02 | > 100 | 3.02 µM | > 100 µM | 0.084 | > 100 | 0.181 | > 100 | 3.19 | > 100 µM | 1.46 | > 100 µM | 3.46 | > 100 µM | 0.75 | > 100 µM | 1.75 | > 100 µM | 2.39 | > 100 µM
6 | OC[C@H]1CCCC1O (stereo partly drawn) | – | > 100 | – | > 100 µM | – | > 100 | – | > 100 | – | > 100 µM | – | – | – | > 100 µM | – | > 100 µM | – | > 100 µM | – | > 100 µM
7 | CCCCCCCC/C=C/CCCCCCCC(=O)OC[C@H]1O[C@@H](n2ccc(N)nc2=O)C(F)(F)[C@@H]1O | < 0.0134 | 11.1 | < 0.0419 µM | > 43.5 µM | 0.117 | > 100 | 0.152 | > 100 | < 0.0174 | > 70.1 µM | < 0.0209 | – | 19 | > 100 µM | 0.131 | > 37.9 µM | 0.039 | > 100 µM | 0.0352 | 5.02 µM
8 | NP(=O)(Oc1c2occc2cc2ccc(=O)oc12)N(CCCl)CCCl (stereo not drawn) | – | > 100 | – | > 100 µM | – | > 100 | – | > 100 | – | > 100 µM | – | > 100 µM | – | > 100 µM | – | > 100 µM | – | > 100 µM | – | > 100 µM
9 | Oc1ccccc1C(Sc1nc2ccccc2s1)Sc1nc2ccccc2s1 | – | > 100 | – | > 100 µM | – | > 100 | – | 73.5 | – | > 100 µM | – | > 100 µM | – | > 100 µM | – | > 100 µM | – | > 100 µM | – | > 100 µM
10 | COc1ccc(Cn2cc3c(c2-c2ccccc2)CC(C)(C)c2cnoc2-3)cc1 | 0.483 | > 100 | 4.96 µM | > 100 µM | 1.02 | > 100 | 2.51 | > 100 | 3.17 | > 100 µM | 4.05 | > 100 µM | 2.3 | > 100 µM | 1.65 | 5.1 µM | 9.64 | > 100 µM | 2.82 | > 100 µM
11 | COc1nc2ccccc2cc1-c1nc2c(cnn2-c2ccc(Br)cc2)c(=O)[nH]1 | 0.0116 | 5.41 | 0.0244 µM | 15.1 µM | 0.0261 | > 50 | 0.0413 | > 50 | 0.0837 | > 50 µM | 0.0363 | 7.39 µM | 0.0591 | > 50 µM | 0.0545 | – | 6.77 | > 50 µM | 0.0879 | > 50 µM
12 | COc1cc2c(c(OC)c1OC)-c1ccc(OC)c(=O)cc1[C@@H](NC(=O)c1ccccc1)CC2 | – | > 100 | < 0.003 µM and 0.0157 µM | 30 µM and 46.3 µM | 0.0444 | – | > 30 | > 100 | < 0.003 | 30 µM and > 100 µM | < 0.003 | 30 µM and > 100 µM | 0.00587 | 30 µM and 55.2 µM | 0.00399 | 0.0153 µM and 0.0138 µM | 24.2 | 30 µM and > 100 µM | < 0.003 | 30 µM and > 73.2 µM
13 | N=C1C(c2nc3ccccc3s2)=C(O)CN1c1cc(C(F)(F)F)ccc1Cl | 1.81 | 4.91 | 60.6 µM | > 100 µM | 3.44 | > 100 | 48.1 | > 100 | 21.1 | > 100 µM | 18.4 | > 100 µM | 9.64 | > 100 µM | 30.8 | > 100 µM | 7.65 | 46.1 µM | 16.3 | > 100 µM
14 | N#CC(NNC(=O)Cc1ccccc1)c1c(O)ccc2ccccc12 (stereo not drawn) | – | 38.3 | – | > 64.4 µM | – | > 100 | – | 60.4 | – | 44.1 µM | – | 59.2 µM | – | > 76.8 µM | – | > 80.5 µM | – | 18.3 µM | – | > 48.3 µM
